# Assay results reported in patent publication US9701670B2, “Pyrazolyl-ureas as kinase inhibitors” (RESPIVERT LIMITED, priority 2013, dated 2017).
# System: 71 receptors and 26 enzymes
# Test: Diversity Profile (Cerep)
# Type: binding
# Details: 300 nM
# Experimental: Studies were conducted by Cerep (Celle-Lévescault, France) to investigate the binding of the compound of Example 77 to a diverse selection of receptors and to investigate either the inhibition or activation of a selection of enzymes (the “Diversity Profile” comprising a total of 71 receptors and 26 enzymes).
compound,measurement,value
"C#Cc1cc(Nc2nccc(Oc3ccc(NC(=O)Nc4cc(C(C)(C)C)nn4-c4ccc(OC)cc4)c4ccccc34)n2)cc(C(=O)NCCN2CCOCC2)c1 [Example 77, 3-((4-((4-(3-(3-(tert-Butyl)-1-(4-methoxyphenyl)-1H-pyrazol-5-yl)ureido)-naphthalen-1-yl)oxy)pyrimidin-2-yl)amino)-5-ethynyl-N-(2-morpholinoethyl)benzamide]",inhibition of the control specific binding in the receptor binding assays or enzyme assays,less than 25%
